# Laboratory results as given in publication PMC7155171, “Probing the Open Global Health Chemical Diversity Library for Multistage-Active Starting Points for Next-Generation Antimalarials” (ACS Infectious Diseases, 2020).
# pIC50: −log10 of the molar value. Read-outs that look alike come from different tables or passages of the source.
# Key:
# [1] = tested on: P. falciparum Dd2 (PfLuc) line expressing firefly luciferase, asexual blood stage; test: microbe, parasite or virus in culture; format: cell-based, Plasmodium falciparum; conditions: Plasmodium falciparum
# P. falciparum Dd2 = test: SYBR green I asexual blood stage proliferation assay (96 h); format: cell-based, Plasmodium falciparum; conditions: for pIC50 / Emax: Plasmodium falciparum
# [2] = DD2, read-out: P. falciparum Luciferase ABS 11-pt Reconfirmation Dose Response (48hr): IC50, 11-pt dose response, 48hr
# [3] = DD2, 8-pt dose response, 96hr, read-out: P. falciparum Luciferase ABS 8-pt Reconfirmation Dose Response (96hr): IC50
# [4] = DD2, 8-pt dose response, 96hr, read-out: P. falciparum Luciferase ABS 8-pt Reconfirmation Dose Response (96hr): Maximum inhibition (%)
# [5] = DD2, 11-pt dose response, 48hr, read-out: P. falciparum Luciferase ABS 11-pt Reconfirmation Dose Response (48hr): Maximum inhibition (%)
# [6] = DD2, 11-pt dose response, 96hr, read-out: P. falciparum Luciferase ABS 11-pt Reconfirmation Dose Response (96hr): IC50
# [7] = DD2, 11-pt dose response, 96hr, read-out: P. falciparum Luciferase ABS 11-pt Reconfirmation Dose Response (96hr): Maximum inhibition (%)
# [8] = DD2, 11-pt dose response, 96hr, read-out: P. falciparum Sybr Green I ABS 11-pt Reconfirmation Dose Response (96hr): IC50
# [9] = DD2, 11-pt dose response, 96hr, read-out: P. falciparum Sybr Green I ABS 11-pt Reconfirmation Dose Response (96hr): Maximum inhibition (%)
# [10] = DD2, read-out: CDD P. falciparum Luciferase ABS 11-pt Reconfirmation Dose Response (48hr): IC50 (μM), 11-pt dose response, 48hr
# [11] = DD2, 8-pt dose response, 96hr, read-out: CDD P. falciparum Luciferase ABS 8-pt Reconfirmation Dose Response (96hr): IC50
# [12] = DD2, 8-pt dose response, 96hr, read-out: CDD P. falciparum Luciferase ABS 8-pt Reconfirmation Dose Response (96hr): Maximum inhibition (%)
# [13] = DD2, 11-pt dose response, 48hr, read-out: CDD P. falciparum Luciferase ABS 11-pt Reconfirmation Dose Response (48hr): Maximum inhibition (%)
# [14] = DD2, 11-pt dose response, 96hr, read-out: CDD P. falciparum Luciferase ABS 11-pt Reconfirmation Dose Response (96hr): IC50
# [15] = DD2, 11-pt dose response, 96hr, read-out: CDD P. falciparum Luciferase ABS 11-pt Reconfirmation Dose Response (96hr): Maximum inhibition (%)
# [16] = DD2, Sybr Green I, 11-pt dose response, 96hr, read-out: CDD P. falciparum Sybr Green I ABS 11-pt Reconfirmation Dose Response (96hr): IC50
# [17] = DD2, Sybr Green I, 11-pt dose response, 96hr, read-out: CDD P. falciparum Sybr Green I ABS 11-pt Reconfirmation Dose Response (96hr): Maximum inhibition (%)
Compound,"IC50 [1, 10]","pIC50 [1, 11]","Emax [1, 12]","Emax [1, 13]","pIC50 [1, 14]","Emax [1, 15]",pIC50 (P. falciparum Dd2; [16]),Emax (P. falciparum Dd2; [17]),other results
CN(Cc1ccccc1-n1cccn1)C[C@@H]1CCCN2CCCC[C@H]12 [DDD01246904],–,–,–,–,–,–,–,–,"pIC50 [1, 2]: < 4.90; pIC50 [1, 3]: 5.73; Emax [1, 4]: 85.8%; Emax [1, 5]: 53.8%; pIC50 [1, 6]: 5.43; Emax [1, 7]: 73.6%; pIC50 (P. falciparum Dd2; [8]): 5.07; Emax (P. falciparum Dd2; [9]): 72.9%"
Cc1cc(-n2cccn2)ccc1CN1CCOCC(CN(C)C)C1 (stereo not shown) [DDD01247138],> 12.5 µM,6.05,83%,48%,5.25,81.9%,< 5.38,60.8%,–
CC(C)CN1CCCC1c1ccc(C(=O)Nc2cccnc2)s1 (stereo not shown) [DDD01247321],4.09 µM,6.11,91.9%,94.3%,5.67,99.9%,5.32,91.6%,–
CCN(CC)CCN(C)c1nc(-c2ccc(Cl)cc2)nc2c1CNC2 [DDD01247796],–,–,–,–,–,–,–,–,"pIC50 [1, 2]: 5.46; pIC50 [1, 3]: 5.82; Emax [1, 4]: 94.9%; Emax [1, 5]: 74.2%; pIC50 [1, 6]: 5.55; Emax [1, 7]: 99.3%; pIC50 (P. falciparum Dd2; [8]): 5.37; Emax (P. falciparum Dd2; [9]): 89.9%"
COc1cccc(CN(C)Cc2[nH]c3ccccc3c2C)c1O [DDD01247848],1.95 µM,6.36,94.4%,95.9%,6.04,98.6%,5.98,98%,–
Cc1cccnc1[C@H](C)Nc1nc(-c2cccnc2)nc2c1CNC2 [DDD01248607],–,–,–,–,–,–,–,–,"pIC50 [1, 2]: 5.80; pIC50 [1, 3]: 5.80; Emax [1, 4]: 92.2%; Emax [1, 5]: 79.2%; pIC50 [1, 6]: 5.86; Emax [1, 7]: 99.4%; pIC50 (P. falciparum Dd2; [8]): 5.41; Emax (P. falciparum Dd2; [9]): 91.2%"
NC1(C(=O)NCC2CCCN(Cc3ccccc3F)C2)CCCC1 (stereo not shown) [DDD01249015],> 12.5 µM,6.21,89.1%,55.5%,5.83,87.8%,< 5.38,77.3%,–
c1ccc(Oc2nccc3occc23)c(CN2CCCCC2)c1 [DDD01249169],> 12.5 µM,6.16,87.1%,34.1%,5.82,78.9%,5.14,73.8%,–
CC(C)[C@@H]1CN(C(=O)C2(c3ccccc3)CCN(C)CC2)C[C@H]1N(C)C [DDD01249452],6.23 µM,6.08,90.5%,–,5.66,95.6%,5.49,87.8%,–
CCc1ccc(CN(CCN(C)C)Cc2ccc(C)s2)nc1 [DDD01249772],–,–,–,–,–,–,–,–,"pIC50 [1, 2]: 5.99; pIC50 [1, 3]: 5.92; Emax [1, 4]: 90.5%; Emax [1, 5]: 95.2%; pIC50 [1, 6]: 6.56; Emax [1, 7]: 101%; pIC50 (P. falciparum Dd2; [8]): 5.52; Emax (P. falciparum Dd2; [9]): 93.4%"
CC(C)c1nccc(C2(c3ccccc3Cl)CCNCC2)n1 [DDD01250092],3.82 µM,5.97,86.6%,58.4%,5.71,90.3%,5.27,74.3%,–
Cc1cccc2[nH]c(-c3cn(C4CCNCC4)nn3)nc12 [DDD01250141],3.07 µM,6.23,94.4%,66.5%,5.67,97.2%,5.83,72.3%,–
O=C(c1scc2c1OCCO2)N1CCOC(CCc2ccccc2)C1 (stereo not shown) [DDD01250278],1.39 µM,6.26,93.1%,97.2%,6.12,100%,5.83,101%,–
CCCn1ccnc1CN1CCCC1c1ccccn1 (stereo not shown) [DDD01250556],4.66 µM,6.34,–,53.8%,5.83,94.8%,4.92,68.5%,–
Cc1cc2nc(-c3cn(C4CCNCC4)nn3)[nH]c2cc1C [DDD01250700],2.08 µM,6.47,95.8%,61.5%,6.00,98.7%,5.49,82%,–
CC(C)(C)CNCC1(O)CCCN(Cc2ccccc2F)C1=O (stereo not shown) [DDD01250810],> 12.5 µM,5.96,82.3%,55.3%,5.24,80.8%,5.37,64.2%,–
"CCCn1nccc1C(=O)N1CCN(C2CCc3ccccc3C2)CC1 (stereo not shown) [DDD01251134, CCCn1nccc1C(=O)N1CCN(CC1)C1CCc2ccccc2C1]",–,–,–,–,–,–,–,–,"IC50 ([1]; DD2, read-out: CDD P. falciparum Luc 11pt dose response (96hr, n=2): IC50 (μM), 96hr, 11-point, n=2): 0.224 µM; IC50 ([1]; DD2, read-out: CDD P. falciparum Luciferase 11pt dose response (48hr, n=2): IC50 (μM), 48hr, 11-point, n=2): 0.205 µM; Emax ([1]; DD2, 48hr, 11-point, read-out: CDD P. falciparum Luciferase ABS 11-pt Reconfirmation Dose Response (48hr): Maximum inhibition (%)): 95.3%; Emax ([1]; DD2, 96hr, 11-point, read-out: CDD P. falciparum Luciferase ABS 11-pt Reconfirmation Dose Response (96hr): Maximum inhibition (%)): 100%; CDD P. falciparum Sybr Green I ABS Dd2 Dose Response: Maximum measured (%) (P. falciparum Dd2; Dd2, 96 h): 56.3%; pIC50 (P. falciparum Dd2; DD2, 96 h, read-out: CDD P. falciparum Sybr Green I ABS Dd2 Dose Response: IC50): < 4.90"
Fc1ccccc1C1(CNC2CCOC3(CCOCC3)C2)CCCC1 (stereo not shown) [DDD01251139],8.87 µM,6.02,86.2%,69.5%,5.84,89.3%,6.23,71.8%,–
Cc1nc(-c2cc(Cl)cc3c2OC(CN)C3)c[nH]1 (stereo not shown) [DDD01251343],> 12.5 µM,6.17,–,-0.28%,5.43,84.3%,< 5.86,–,–
Cc1nc(C2CCNCC2)cc(N(C)Cc2cc3cc(F)ccc3[nH]2)n1 [DDD01251474],2.3 µM,6.00,93.3%,98.2%,6.38,100%,5.49,90.9%,–
